Laboratory results as given in publication PMC6425606 (Journal for Immunotherapy of Cancer, 2019).
Read-outs that look alike come from different tables or passages of the source.

Experiments:
[1] = Epacadostat plasma pharmacokinetics (LC-MS/MS, noncompartmental analysis); assay type: in vivo, human
Method: SAS® software, version 9.4 (SAS Institute Inc., Cary, NC) was used to generate all tables, graphs, and statistical analyses. […] Descriptive statistics were used to present summaries of continuous and categorical variables. Survival data (OS, PFS) were analyzed using the nonparametric Kaplan-Meier method.
Thirty-six patients were evaluable for pharmacokinetic analyses. […] Steady-state pharmacokinetic observations (Cycle 1, Day 10) are summarized in Additional file 1: Table S3.

[2] = design: method as in PMID 28053021; settings: epacadostat monotherapy 300 mg BID, patients with advanced malignancies; cited from earlier work
[3] = system: metastatic melanoma; design: method as in PMID 20525992, PMID 27622997, PMID 26027431; settings: ipilimumab monotherapy, previously treated patients; cited from earlier work
[4] = system: untreated melanoma; settings: human, in vivo; cited from earlier work
[5] = epacadostat 25 mg BID (n=10), steady state Cycle 1 Day 10
[6] = epacadostat 50 mg BID continuous (n=13), steady state Cycle 1 Day 10
[7] = epacadostat 50 mg BID intermittent (n=7), steady state Cycle 1 Day 10
[8] = epacadostat 300 mg BID (n=6), steady state Cycle 1 Day 10

Molecule: NS(=O)(=O)NCCNc1nonc1C(=NO)Nc1ccc(F)c(Br)c1 [epacadostat]
- Increase of pharmacokinetic exposures (Cmax, AUC0–12h) with dose ([1]; between 25 mg BID and 300 mg BID): dose-proportional
- CL/F, geometric mean [1, 5]: 61.3 L/h
- CL/F, mean ± SD [1, 5]: 68.9 ± 32.1 L/h
- Cmin, mean ± SD [1, 5]: 30 ± 30 nM
- CL/F, geometric mean [1, 6]: 64.2 L/h
- CL/F, mean ± SD [1, 6]: 69.7 ± 29.8 L/h
- Cmin, mean ± SD [1, 6]: 60 ± 50 nM
- tmax, median [1, 6]: 2.0 h
- Cmax ([1]; epacadostat 50 mg BID continuous (n=13), steady state Cycle 1 Day 10, read-out: Cmax, geometric mean): 400 nM
- Cmax ([1]; epacadostat 50 mg BID continuous (n=13), steady state Cycle 1 Day 10, read-out: Cmax, mean ± SD): 500 ± 200 nM
- CL/F, geometric mean [1, 7]: 54.4 L/h
- CL/F, mean ± SD [1, 7]: 57.6 ± 21.7 L/h
- Cmin, mean ± SD [1, 7]: 60 ± 40 nM
- Cmax ([1]; epacadostat 50 mg BID intermittent (n=7), steady state Cycle 1 Day 10, read-out: Cmax, geometric mean): 500 nM
- CL/F, geometric mean [1, 8]: 74.8 L/h
- CL/F, mean ± SD [1, 8]: 77.6 ± 22.2 L/h
- Cmin, geometric mean [1, 8]: 200 nM
- Cmin, mean ± SD [1, 8]: 300 ± 200 nM
- AUC(0-t) ([1]; human, plasma, oral, 25 mg, epacadostat 25 mg BID (n=10), steady state Cycle 1 Day 10, read-out: AUC0–12h, geometric mean): 0.9 µM·h
- AUC(0-t) ([1]; human, plasma, oral, 25 mg, epacadostat 25 mg BID (n=10), steady state Cycle 1 Day 10, read-out: AUC0–12h, mean ± SD): 1.1 ± 0.7 µM·h
- half-life ([1]; human, plasma, oral, 25 mg, epacadostat 25 mg BID (n=10), steady state Cycle 1 Day 10, read-out: t½, geometric mean (converted)): 7.4 h
- half-life ([1]; human, plasma, oral, 25 mg, epacadostat 25 mg BID (n=10), steady state Cycle 1 Day 10, read-out: t½, mean ± SD (converted)): 9.1 ± 6.1 h
- AUC(0-t) ([1]; human, plasma, oral, 50 mg, epacadostat 50 mg BID continuous (n=13), steady state Cycle 1 Day 10, read-out: AUC0–12h, geometric mean): 1.8 µM·h
- AUC(0-t) ([1]; human, plasma, oral, 50 mg, epacadostat 50 mg BID continuous (n=13), steady state Cycle 1 Day 10, read-out: AUC0–12h, mean ± SD): 1.9 ± 0.8 µM·h
- half-life ([1]; human, plasma, oral, 50 mg, epacadostat 50 mg BID continuous (n=13), steady state Cycle 1 Day 10, read-out: t½, geometric mean (converted)): 5.9 h
- half-life ([1]; human, plasma, oral, 50 mg, epacadostat 50 mg BID continuous (n=13), steady state Cycle 1 Day 10, read-out: t½, mean ± SD (converted)): 7.1 ± 5.5 h
- AUC(0-t) ([1]; human, plasma, oral, 50 mg, epacadostat 50 mg BID intermittent (n=7), steady state Cycle 1 Day 10, read-out: AUC0–12h, geometric mean): 2.1 µM·h
- AUC(0-t) ([1]; human, plasma, oral, 50 mg, epacadostat 50 mg BID intermittent (n=7), steady state Cycle 1 Day 10, read-out: AUC0–12h, mean ± SD): 2.2 ± 0.7 µM·h
- half-life ([1]; human, plasma, oral, 50 mg, epacadostat 50 mg BID intermittent (n=7), steady state Cycle 1 Day 10, read-out: t½, geometric mean (converted)): 4.5 h
- half-life ([1]; human, plasma, oral, 50 mg, epacadostat 50 mg BID intermittent (n=7), steady state Cycle 1 Day 10, read-out: t½, mean ± SD (converted)): 5.1 ± 2.9 h
- AUC(0-t) ([1]; human, plasma, oral, 300 mg, epacadostat 300 mg BID (n=6), steady state Cycle 1 Day 10, read-out: AUC0–12h, geometric mean): 9.2 µM·h
- AUC(0-t) ([1]; human, plasma, oral, 300 mg, epacadostat 300 mg BID (n=6), steady state Cycle 1 Day 10, read-out: AUC0–12h, mean ± SD): 9.5 ± 3 µM·h
- half-life ([1]; human, plasma, oral, 300 mg, epacadostat 300 mg BID (n=6), steady state Cycle 1 Day 10, read-out: t½, geometric mean (converted)): 5.4 h
- half-life ([1]; human, plasma, oral, 300 mg, epacadostat 300 mg BID (n=6), steady state Cycle 1 Day 10, read-out: t½, mean ± SD (converted)): 6.2 ± 3.5 h
- half-life ([1]; human, plasma, po, repeat oral doses of 25 mg BID, 50 mg BID, 50 mg BID intermittent, 300 mg BID, read-out: Mean terminal elimination half-life (t½)): 5 to 9 h
- Tmax ([1]; human, plasma, repeat oral doses of 25 mg BID, 50 mg BID, 50 mg BID intermittent, 300 mg BID, read-out: Median time of maximum observed concentration (tmax)): ~2 h
- Geometric mean AUC [2]: 9.8 µM·h

Molecule: ipilimumab: anti-CTLA-4 antibody, immune checkpoint inhibitor
- Overall response rate [3]: 11%
- Patients with grade 3/4 treatment-emergent AEs [4]: 56%
- Rate of irAEs (grade 3/4) [4]: 19%
